Here are results for one molecule from US20120270237A9, “METHODS FOR THE IDENTIFICATION OF KINASE INTERACTING MOLECULES AND FOR THE PURIFICATION OF KINASE PROTEINS” (Cellzone AG, priority 2009, published 2012).

What is called inhibition is the percentage by which the read-out fell short of the control.

The structures appear in SMILES notation.

One assay deals with PITSLRE. Description: Kinobeads competition binding, HL60 cell lysate. The arrangement: species or system human. As to conditions: 10 μM free compound. How it is done: To one aliquot of cell lysate 10 μM of the free compound (FIG. 3, CZC31326) was added and allowed to bind to proteins in the lysate. Then the affinity matrix with the immobilized compound (Example 1) was added to capture proteins that were not interacting with the previously added free compound. Beads were separated from the lysate and bead bound proteins were eluted in SDS sample buffer and subsequently separated by SDS-Polyacrylamide gel electrophoresis (FIG. 4). Suitable gel bands were cut out and subjected to in-gel proteolytic digestion with trypsin. The second lysate aliquot was processed identically, however no free compound was added (DMSO solvent control). Peptides originating from samples 1 and 2 were labeled with iTRAQ reagents (iTRAQ 114 and iTRAQ 117) and the combined samples were analyzed with a nano-flow liquid chromatography system coupled online to a tandem mass spectrometer (LC-MS/MS) experiment followed by iTRAQ reporter ion quantification in the MS/MS spectra (Ross et al., 2004. Mol. Cell. Proteomics 3(12):1154-1169). […] The iTRAQ reagents are a set of multiplexed, amine-specific, stable isotope reagents that can label peptides on amino groups in up to four different biological samples enabling simultaneous identification and quantitation of peptides. […]

For a further assay, the target named is MARK2 (Homo sapiens, UniProt Q7KZI7). Description: Kinobeads competition binding, HL60 cell lysate. Set-up: endogenous in cells; host or cells: HL60 cell lysate. The note with it: 10 μM free compound. The procedure: To one aliquot of cell lysate 10 μM of the free compound (FIG. 3, CZC31326) was added and allowed to bind to proteins in the lysate. Then the affinity matrix with the immobilized compound (Example 1) was added to capture proteins that were not interacting with the previously added free compound. Beads were separated from the lysate and bead bound proteins were eluted in SDS sample buffer and subsequently separated by SDS-Polyacrylamide gel electrophoresis (FIG. 4). Suitable gel bands were cut out and subjected to in-gel proteolytic digestion with trypsin. The second lysate aliquot was processed identically, however no free compound was added (DMSO solvent control). Peptides originating from samples 1 and 2 were labeled with iTRAQ reagents (iTRAQ 114 and iTRAQ 117) and the combined samples were analyzed with a nano-flow liquid chromatography system coupled online to a tandem mass spectrometer (LC-MS/MS) experiment followed by iTRAQ reporter ion quantification in the MS/MS spectra (Ross et al., 2004. Mol. Cell. Proteomics 3(12):1154-1169). Further experimental protocols can be found in WO2006/134056 and a previous publication (Bantscheff et al., 2007. Nature Biotechnology 25, 1035-1044). Sepharose-beads with the immobilized compound (100 μl beads per pull-down experiment) were equilibrated in lysis buffer and incubated with a cell lysate sample containing 50 mg of protein on an end-over-end shaker (Roto Shake Genie, Scientific Industries Inc.) for 2 hours at 4° C. […] The iTRAQ reagents are a set of multiplexed, amine-specific, stable isotope reagents that can label peptides on amino groups in up to four different biological samples enabling simultaneous identification and quantitation of peptides. […] Relative protein quantitation was performed using peak areas of iTRAQ reporter ion signals essentially as described in an earlier publication (Bantscheff et al., 2007. Nature Biotechnology 25, 1035-1044).

A further assay has as its target JNK2 (Homo sapiens, UniProt P45984). Description: Kinobeads competition binding, L-363 cell lysate. The arrangement: Identified kinases with CZC31326 from L-363 cell lysate; endogenous in cells; host or cells: L-363 (MG132-treated). The note with it: 10 μM free compound, L-363 lysate. The procedure: (§1) To one aliquot of cell lysate 10 μM of the free compound (FIG. 3, CZC31326) was added and allowed to bind to proteins in the lysate. Then the affinity matrix with the immobilized compound was added to capture proteins that were not interacting with the previously added free compound. Beads were separated from the lysate and bead bound proteins were eluted in SDS sample buffer and subsequently separated by SDS-Polyacrylamide gel electrophoresis (FIG. 8). Suitable gel bands were cut out and subjected to in-gel proteolytic digestion with trypsin. The second lysate aliquot was processed identically, however no free compound was added (DMSO solvent control). Peptides originating from samples 1 and 2 were labeled with iTRAQ reagents (iTRAQ 114 and iTRAQ 117) and the combined samples were analyzed with a nano-flow liquid chromatography system coupled online to a tandem mass spectrometer (LC-MS/MS) experiment followed by iTRAQ reporter ion quantification in the MS/MS spectra as described in Example 2.
(§2) For this experiment the human plasma cell leukaemia line L-363 was used (German Collection of Microorganisms and Cell Cultures, DSMZ number ACC49, Braunschweig, Germany). Cells were treated for three hours with 20 μM of the proteasome inhibitor MG132 (Z-Leu-Leu-Leu-al, Sigma C2211) prior to cell harvesting.

The next assay concerns the target JAK2 (Homo sapiens, UniProt O60674). Description: Kinobeads competition binding, L-363 cell lysate. Set-up: Identified kinases with CZC31326 from L-363 cell lysate; endogenous in cells; host or cells: L-363 (MG132-treated). The note with it: 10 μM free compound, L-363 lysate. The procedure: as §1, §2
Another assay has as its target JAK1 (Homo sapiens, UniProt P23458). Description: Kinobeads competition binding, L-363 cell lysate. Set-up: Identified kinases with CZC31326 from L-363 cell lysate; endogenous in cells; host or cells: L-363 (MG132-treated). The note with it: 10 μM free compound, L-363 lysate. How it is done: as §1, §2
The target of the next assay is IRE1 (Homo sapiens, UniProt O75460). Description: Kinobeads competition binding, L-363 cell lysate. As to conditions: 10 μM free compound, L-363 lysate. Set-up: Identified kinases with CZC31326 from L-363 cell lysate; endogenous in cells; host or cells: L-363 (MG132-treated). The procedure: as §1, §2
IRE1, sequence (O75460 19-977): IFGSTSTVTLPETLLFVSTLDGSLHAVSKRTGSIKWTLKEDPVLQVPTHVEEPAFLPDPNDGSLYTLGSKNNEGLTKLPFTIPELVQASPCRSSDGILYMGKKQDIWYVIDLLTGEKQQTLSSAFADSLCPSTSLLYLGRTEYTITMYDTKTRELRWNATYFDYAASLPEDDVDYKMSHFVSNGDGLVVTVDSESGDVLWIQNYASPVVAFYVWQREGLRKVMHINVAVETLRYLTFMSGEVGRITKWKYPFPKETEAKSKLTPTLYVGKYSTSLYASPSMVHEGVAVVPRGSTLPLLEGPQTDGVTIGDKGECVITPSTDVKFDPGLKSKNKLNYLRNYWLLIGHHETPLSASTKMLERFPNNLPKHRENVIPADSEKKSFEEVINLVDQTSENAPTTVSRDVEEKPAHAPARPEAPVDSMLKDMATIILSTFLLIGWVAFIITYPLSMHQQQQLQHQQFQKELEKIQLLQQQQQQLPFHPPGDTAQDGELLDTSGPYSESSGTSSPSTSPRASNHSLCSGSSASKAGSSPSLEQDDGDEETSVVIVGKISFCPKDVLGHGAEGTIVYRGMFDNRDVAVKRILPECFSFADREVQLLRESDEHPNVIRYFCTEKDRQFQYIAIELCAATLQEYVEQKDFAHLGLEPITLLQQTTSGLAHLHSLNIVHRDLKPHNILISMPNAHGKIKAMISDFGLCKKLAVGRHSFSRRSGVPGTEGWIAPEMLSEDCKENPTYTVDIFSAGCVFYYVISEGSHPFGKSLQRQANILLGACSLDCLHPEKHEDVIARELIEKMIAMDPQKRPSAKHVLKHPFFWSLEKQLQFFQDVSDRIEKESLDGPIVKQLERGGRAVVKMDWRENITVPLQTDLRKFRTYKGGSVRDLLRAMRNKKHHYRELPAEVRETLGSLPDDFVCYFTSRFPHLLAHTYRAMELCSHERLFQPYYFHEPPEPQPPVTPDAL

JNK2, sequence (P45984 whole entry): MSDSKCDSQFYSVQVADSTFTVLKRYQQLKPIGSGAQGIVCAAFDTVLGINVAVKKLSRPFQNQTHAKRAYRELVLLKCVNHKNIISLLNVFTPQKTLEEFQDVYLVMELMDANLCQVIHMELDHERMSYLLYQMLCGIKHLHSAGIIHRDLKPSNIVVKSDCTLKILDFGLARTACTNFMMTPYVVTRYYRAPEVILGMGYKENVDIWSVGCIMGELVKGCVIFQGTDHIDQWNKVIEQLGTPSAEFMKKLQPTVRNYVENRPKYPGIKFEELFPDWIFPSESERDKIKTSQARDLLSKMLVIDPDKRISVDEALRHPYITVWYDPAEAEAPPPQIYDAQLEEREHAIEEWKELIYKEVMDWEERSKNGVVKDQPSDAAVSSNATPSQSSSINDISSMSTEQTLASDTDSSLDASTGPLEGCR
JAK2, sequence (O60674 whole entry): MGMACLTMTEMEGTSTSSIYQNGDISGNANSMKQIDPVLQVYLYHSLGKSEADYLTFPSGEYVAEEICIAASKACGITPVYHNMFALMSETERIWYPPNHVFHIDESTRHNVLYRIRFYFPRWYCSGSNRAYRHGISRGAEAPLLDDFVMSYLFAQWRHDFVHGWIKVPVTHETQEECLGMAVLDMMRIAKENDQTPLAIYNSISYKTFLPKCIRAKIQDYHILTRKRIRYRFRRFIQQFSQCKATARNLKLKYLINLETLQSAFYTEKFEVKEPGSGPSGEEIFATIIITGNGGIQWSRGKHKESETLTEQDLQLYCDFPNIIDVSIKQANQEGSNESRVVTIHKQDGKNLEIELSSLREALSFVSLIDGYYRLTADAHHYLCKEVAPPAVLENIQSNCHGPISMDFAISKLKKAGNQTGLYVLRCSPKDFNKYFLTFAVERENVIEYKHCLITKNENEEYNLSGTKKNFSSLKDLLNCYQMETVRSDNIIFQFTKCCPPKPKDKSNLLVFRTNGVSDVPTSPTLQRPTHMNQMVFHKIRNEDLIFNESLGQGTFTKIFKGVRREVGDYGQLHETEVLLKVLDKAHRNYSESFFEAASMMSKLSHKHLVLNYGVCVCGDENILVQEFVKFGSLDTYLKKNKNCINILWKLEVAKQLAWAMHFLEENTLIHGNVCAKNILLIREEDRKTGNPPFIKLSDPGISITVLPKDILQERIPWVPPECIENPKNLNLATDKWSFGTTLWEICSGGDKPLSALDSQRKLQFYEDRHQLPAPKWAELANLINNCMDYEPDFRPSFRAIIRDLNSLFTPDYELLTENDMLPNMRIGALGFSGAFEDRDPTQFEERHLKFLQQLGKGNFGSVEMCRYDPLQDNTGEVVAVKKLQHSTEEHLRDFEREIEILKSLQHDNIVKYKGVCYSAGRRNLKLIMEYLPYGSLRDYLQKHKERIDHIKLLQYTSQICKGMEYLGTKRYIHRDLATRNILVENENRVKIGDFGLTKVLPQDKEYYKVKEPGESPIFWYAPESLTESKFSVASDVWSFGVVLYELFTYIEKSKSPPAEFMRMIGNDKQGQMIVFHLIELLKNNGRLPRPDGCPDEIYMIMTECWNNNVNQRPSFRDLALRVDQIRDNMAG
JAK1, sequence (P23458 whole entry): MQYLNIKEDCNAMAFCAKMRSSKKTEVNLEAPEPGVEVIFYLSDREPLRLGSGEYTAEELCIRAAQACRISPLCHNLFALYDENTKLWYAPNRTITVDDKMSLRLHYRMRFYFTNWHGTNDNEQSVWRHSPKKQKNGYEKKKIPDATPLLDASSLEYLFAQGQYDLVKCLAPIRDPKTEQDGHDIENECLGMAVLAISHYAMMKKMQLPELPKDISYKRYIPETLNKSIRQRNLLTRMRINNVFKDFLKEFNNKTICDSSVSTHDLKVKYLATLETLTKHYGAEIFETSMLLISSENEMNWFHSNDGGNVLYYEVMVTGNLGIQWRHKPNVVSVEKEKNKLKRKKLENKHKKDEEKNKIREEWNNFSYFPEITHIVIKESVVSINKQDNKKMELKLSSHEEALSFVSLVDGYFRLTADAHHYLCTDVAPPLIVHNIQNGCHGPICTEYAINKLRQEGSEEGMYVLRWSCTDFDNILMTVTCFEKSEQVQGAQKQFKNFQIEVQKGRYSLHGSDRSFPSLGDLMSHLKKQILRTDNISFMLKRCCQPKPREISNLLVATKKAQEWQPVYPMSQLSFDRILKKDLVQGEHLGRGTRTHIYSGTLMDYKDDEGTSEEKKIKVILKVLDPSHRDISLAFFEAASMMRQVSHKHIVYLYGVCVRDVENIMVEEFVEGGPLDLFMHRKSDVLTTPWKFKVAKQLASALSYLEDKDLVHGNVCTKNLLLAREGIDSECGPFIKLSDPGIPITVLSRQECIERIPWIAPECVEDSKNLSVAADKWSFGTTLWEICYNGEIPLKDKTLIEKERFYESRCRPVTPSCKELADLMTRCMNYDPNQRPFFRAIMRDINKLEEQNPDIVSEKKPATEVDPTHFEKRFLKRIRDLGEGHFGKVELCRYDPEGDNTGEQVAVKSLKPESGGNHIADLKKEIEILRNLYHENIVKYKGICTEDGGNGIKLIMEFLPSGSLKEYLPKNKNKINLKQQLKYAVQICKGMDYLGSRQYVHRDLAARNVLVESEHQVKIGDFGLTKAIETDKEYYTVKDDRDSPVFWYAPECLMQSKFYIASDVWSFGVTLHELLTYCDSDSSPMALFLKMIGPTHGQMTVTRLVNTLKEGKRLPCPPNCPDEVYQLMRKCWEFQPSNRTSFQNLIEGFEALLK
MARK2, sequence (Q7KZI7 whole entry): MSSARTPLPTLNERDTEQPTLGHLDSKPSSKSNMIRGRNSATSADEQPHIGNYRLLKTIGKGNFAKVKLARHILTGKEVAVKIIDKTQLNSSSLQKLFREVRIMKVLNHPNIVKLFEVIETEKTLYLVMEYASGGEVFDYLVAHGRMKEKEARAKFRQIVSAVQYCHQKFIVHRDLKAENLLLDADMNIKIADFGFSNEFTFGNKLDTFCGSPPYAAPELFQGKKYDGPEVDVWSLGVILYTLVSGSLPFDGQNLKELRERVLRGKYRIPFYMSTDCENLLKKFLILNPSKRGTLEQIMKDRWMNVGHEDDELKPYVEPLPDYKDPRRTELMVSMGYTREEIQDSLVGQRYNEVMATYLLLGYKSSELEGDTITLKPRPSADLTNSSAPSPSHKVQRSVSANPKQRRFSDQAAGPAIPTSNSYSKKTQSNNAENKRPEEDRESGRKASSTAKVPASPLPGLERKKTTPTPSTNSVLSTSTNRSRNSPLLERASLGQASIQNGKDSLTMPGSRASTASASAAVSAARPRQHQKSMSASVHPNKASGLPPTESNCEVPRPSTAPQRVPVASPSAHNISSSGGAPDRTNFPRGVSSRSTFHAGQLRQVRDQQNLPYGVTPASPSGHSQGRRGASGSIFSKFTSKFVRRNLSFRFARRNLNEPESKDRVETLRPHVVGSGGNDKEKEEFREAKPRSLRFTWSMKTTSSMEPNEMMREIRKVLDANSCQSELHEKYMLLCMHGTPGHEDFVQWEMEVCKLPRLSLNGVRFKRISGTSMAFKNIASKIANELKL

In the case of `CS(=O)(=O)Nc1ccccc1Nc1nc(Nc2cccc(OCCN)c2)ncc1Cl` [CZC31326, N-(2-(2-(3-(2-aminoethoxy)phenylamino)-5-chloropyrimidin-4-ylamino)phenyl)methanesulfonamide], the Competition % stood at 94.8% in the assay with PITSLRE, 88% at JNK2, 96.1% on JAK2 and 97.2% at JAK1. For the same molecule, the inhibition at 10 µM at MARK2 came to 97.1%; at IRE1, 97.9%.
